From PubChem BioAssay (NCI) come the findings set out here.

Test in all cases: inhibition of tumour cell growth, NCI panel, 48 h
Assay [1] has as its system SK-OV-3 ovarian.
Assay [2] deals with SK-MEL-5 melanoma.
For assay [3], the system named is IGROV1 ovarian.
In assay [4] the test system is HL-60(TB) leukemia.
Assay [5] has as its system NCI-H522 lung.
The test system of assay [6] is HOP-62 NSCLC.
Assay [7] has as its system MCF7 breast.
Assay [8] has as its system LOX IMVI melanoma.
For assay [9], the system named is HOP-92 NSCLC.
The subject of assay [10] is EKVX NSCLC.

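Briefly, cells in 96-well plates were exposed to five compound concentrations for 48 h, and endpoints were estimated by linear interpolation. The concentration for 50% growth inhibition is given as GI50. TGI is the concentration that stops growth completely.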

Turning to `CCOC(=O)c1ccccc1SC(C[N+](=O)[O-])c1ccccc1` (stereo not drawn), the GI50 in assay [1] was 12.7 µM; in assay [2], 5.09 µM; in [3], 3.88 µM; in assay [4], 5.96 µM; in assay [5], 11 µM; in assay [6], 16.9 µM. For the same molecule, the GI50 in assay [7] was 1.07 µM; in assay [8], 1.81 µM; in assay [9], 6.94 µM. Also, the TGI came to 26.5 µM in assay [1]; 17.4 µM in [2]; 15 µM in assay [3]; 27.9 µM in [4]; 23.3 µM in [5]; 32.1 µM in [6]. Besides, the TGI in assay [7] is 4.12 µM; in [8] it was 3.51 µM; in assay [9], 21.9 µM.

For the molecule `Fc1ccc([C@@H]2CCNC[C@H]2COc2ccc3c(c2)OCO3)cc1`, the GI50 in [1] is 12.7 µM; in assay [2], 4.42 µM; in assay [3], 7.05 µM; in [4], 4.95 µM; in assay [5] it was 12 µM; in assay [6] it was 13.3 µM. For the same molecule, the GI50 in assay [7] was 3.23 µM; in assay [9], 1.62 µM. In addition, the TGI in [1] came out at 25.7 µM; in assay [2], 17 µM; in [3], 20.3 µM; in assay [4], 19.9 µM; in assay [5], 25.4 µM; in assay [6] it was 27.4 µM. The TGI amounted to 14.6 µM in assay [7] and 12.8 µM in assay [9].

For the molecule `O=C1NC(=O)[C@@H](c2c[nH]c3ccccc23)[C@@H]1c1c[nH]c2ccccc12`, the GI50 in [1], in [2], in assay [3], in assay [4], in assay [5] and in [6] was greater than 25 µM in each case. The GI50 is greater than 25 µM in assay [7], greater than 25 µM in assay [8] and 21.2 µM in assay [9]. Besides, the TGI in [1], in assay [2], in assay [3], in assay [4], in assay [5] and in [6] was greater than 25 µM throughout. Moreover, the TGI in assay [7], in assay [8] and in assay [9] was greater than 25 µM in each case.

With `COc1cc(C(=O)O/N=C(\N)Cc2cccc3ccccc23)cc(OC)c1OC`, the GI50 was 16.5 µM in [1]; 2.05 µM in assay [2]; 3.61 µM in assay [3]; 5.35 µM in [4]; 1.87 µM in assay [5]; 4.42 µM in assay [6]. In addition, the GI50 in assay [7] was 2.57 µM; in assay [8] it was 3.41 µM; in assay [9] it was 4.59 µM. Also, the TGI in assay [1] came to 30.6 µM; in assay [2], 4.71 µM; in assay [3], 12.1 µM; in [4] it was 36.5 µM; in [5], 3.7 µM; in [6] it was 18.7 µM. Moreover, the results for the TGI in assay [7], in [8] and in assay [9] were 8.81 µM, 16.9 µM and 17 µM, respectively.

Consider `O=C1CC(c2ccsc2)c2snc(-c3ccc(Cl)cc3)c2N1` (stereo not drawn), for which the GI50 in [1] was 2.17 µM; in assay [2], 0.404 µM; in [3], 2.87 µM; in assay [4], 1.11 µM; in assay [5], 0.626 µM; in [6], 2.63 µM. For the same molecule, the GI50 in assay [7] is 0.563 µM; in assay [8], 1 µM; in assay [9] it was 3.87 µM. Moreover, the TGI in assay [1] is 12 µM; in assay [2], 2.4 µM; in assay [3], greater than 100 µM; in [4] it was 3.33 µM; in assay [5], 13.5 µM; in [6] it was 35.2 µM. In addition, the TGI in assay [7] is greater than 100 µM; in assay [8], greater than 100 µM; in assay [9], 81.8 µM.

`CCCC(C)c1c(Cl)nc(Cl)nc1Cl` (stereo not drawn): the TGI in assay [1] was 43.8 µM; in assay [2], 13.9 µM; in assay [3], 36.4 µM; in assay [4] it was greater than 100 µM; in assay [10], 36.9 µM; in assay [5], 5.32 µM. The TGI in assay [6] was 20.6 µM; in assay [7], 26.3 µM; in assay [8], greater than 100 µM.

Regarding `O=C(Cc1csc2nc(-c3ccc(Br)cc3)cn12)N/N=C/c1ccc(Cl)cc1Cl`, the GI50 in assay [1] was greater than 100 µM; in assay [2], 44.2 µM; in assay [3], 16 µM; in [10], 31.6 µM; in assay [5], 25.8 µM; in assay [6] it was 16.6 µM. Moreover, the GI50 is greater than 100 µM in [7], 21.2 µM in [8] and 28.2 µM in assay [9]. Also, the TGI is greater than 100 µM in [1]; greater than 100 µM in assay [2]; 45.6 µM in assay [3]; greater than 100 µM in assay [10]; greater than 100 µM in [5]; 35 µM in assay [6]. For the same molecule, the TGI in assay [7] is greater than 100 µM; in assay [8], 48.6 µM; in [9], greater than 100 µM.

As to `COc1cc2cnc(-c3ccccc3)cc2cc1OC`, the TGI is greater than 100 µM in [1]; 27.7 µM in assay [2]; 49.5 µM in assay [3]; 59.7 µM in assay [4]; 34.3 µM in [10]; 53 µM in assay [5]. In addition, the TGI in [6] was greater than 100 µM; in assay [7] it was greater than 100 µM; in assay [9], 65.9 µM.

Consider `COC1C(CO)OC(n2c3c(Cl)cccc3c3c4c(c5c6cccc(Cl)c6[nH]c5c32)C(=O)NC4=O)C(O)C1O` (stereo not drawn), for which the TGI in assay [1] was greater than 24.9 µM; in assay [2] it was 0.321 µM; in assay [3], 7.76 µM; in assay [10], greater than 100 µM; in assay [5] it was 10.5 µM; in [6], 6.63 µM. Moreover, the TGI in assay [7] is 4.86 µM; in assay [8] it was 0.289 µM; in assay [9] it was 4.88 µM.
